# Results reported in patent US11104648B2, “Pyrazole derivative” (Zhejiang Research Institute of Chemical Industry Co., Ltd., priority 2018, dated 2021).
# Like-named read-outs stand apart in the source and are kept apart here.
# How the values were obtained:
# Format in all cases: in vivo
# [1] = tested on: adult Tetranychus cinnabarinus; test: Activity assay of adult Tetranychus cinnabarinus (whole-plant spray on bean seedlings); conditions: 48 h; for pest or weed control at 1.25 µg/mL: concentration 1.25 mg/L
# Summary of the method: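 Whole plants sprayed after adult mite inoculation and initial census, using compound dissolved in DMF and made up with 1‰ Tween 80 water (DMF not above 10%). Mortality derived from survivor counts at 48 h after treatment. Each treatment run in triplicate.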
# [2] = tested on: Tetranychus cinnabarinus Nymphs; test: Activity assay of Tetranychus cinnabarinus nymphs (spray on broad bean leaves)
# Summary of the method: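 Mortality, judged as no response to gentle touch, was scored 48 h after spraying Tetranychus cinnabarinus nymphs on broad bean leaves (eggs from females removed after 24 h). Test solutions: DMF-dissolved compound, ≤10% DMF, in 1‰ Tween 80; 26±2° C., 70%–80% RH, 16 h light; triplicate, blank control.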
# [3] = tested on: Eggs of Tetranychus Cinnabarinus; test: Activity assay of eggs of Tetranychus cinnabarinus (spray method, ovicidal); conditions: Tetranychus cinnabarinus; for pest or weed control at 2 µg/mL: concentration 2 mg/L
# Summary of the method: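 Ovicidal spray test: compound dissolved in DMF, diluted with 1‰ Tween 80 (DMF ≤10%), sprayed on eggs laid during 24 h by females on broad bean leaves. Culture at 26±2° C, 70–80% RH, 16 h photoperiod; non-hatched eggs scored as dead when blank control hatched; three repeats.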
# [4] = concentration 2.5 mg/L, read-out: adult mite-killing activity
# [5] = 48 h, concentration 2.5 mg/L, read-out: nymph-killing activity
# [6] = concentration 5 mg/L, spray, non-incubated eggs counted as dead, read-out: ovicidal activity
# [7] = adult mites, parallel determination, read-out: Death rate (%)
# [8] = read-out: adult mite-killing activity
# [9] = 48 h, concentration 2 mg/L, read-out: nymph-killing activity
# [10] = 48 h, nymphs, concentration 0.5 mg/L, parallel determination, read-out: Death rate (%)
# [11] = spray, read-out: ovicidal activity
# [12] = eggs, parallel determination, read-out: Death rate (%)
SMILES,"pest or weed control at 2.5 µg/mL [1, 4]","pest or weed control at 2.5 µg/mL [2, 5]","pest or weed control at 5 µg/mL [3, 6]",further results
CCC(=O)OCO/C(=C(/C#N)c1ccc(C(C)(C)C)cc1)c1c(C)c(C)nn1CC [Compound 377],≥ 90%,≥ 95%,≥ 90%,–
CCCCC(=O)OC(C)O/C(=C(/C#N)c1ccc(C(C)(C)C)cc1)c1c(C)c(C)nn1CC (stereo not drawn) [Compound 406],≥ 90%,≥ 95%,≥ 90%,–
Cc1cc(/C(OC(C)OC(=O)Cc2ccccc2)=C(\C#N)c2ccc(C(C)(C)C)cc2)n(C)n1 (stereo not drawn) [Compound 40],≥ 90%,–,≥ 90%,"pest or weed control at 2.5 µg/mL ([2]; concentration 2.5 mg/L, 48 h, read-out: nymph-killing activity): ≥ 95%"
CCn1nc(C)c(C)c1/C(OC(C)OC(=O)CSC)=C(\C#N)c1ccc(C(C)(C)C)cc1 (stereo not drawn) [Compound 410],≥ 90%,≥ 95%,≥ 90%,–
CCC(=O)OC(C)O/C(=C(/C#N)c1ccc(C(C)(C)C)cc1)c1cc(C)nn1C (stereo not drawn) [Compound 27],≥ 90%,≥ 95%,≥ 90%,–
CC(=O)OCO/C(=C(/C#N)c1ccc(C(C)(C)C)cc1)c1c(Cl)c(C)nn1C [Compound 76],≥ 90%,≥ 95%,≥ 90%,–
CCCCOC(=O)OCO/C(=C(/C#N)c1ccc(C(C)(C)C)cc1)c1cc(C)nn1C [Compound 456],≥ 90%,≥ 95%,≥ 90%,–
CCn1nc(C)cc1/C(OC(C)OC(=O)C(C)C)=C(\C#N)c1ccc(C(C)(C)C)cc1 (stereo not drawn) [Compound 254],≥ 90%,≥ 95%,≥ 90%,"pest or weed control at 1.25 µg/mL [1, 7]: 97%; pest or weed control at 1.25 µg/mL [1, 8]: ≥ 90%; pest or weed control at 2 µg/mL [2, 9]: ≥ 90%; pest or weed control at 0.5 µg/mL [2, 10]: 96%; pest or weed control at 2 µg/mL [3, 11]: ≥ 90%; pest or weed control at 2 µg/mL [3, 12]: 99%"
CCn1nc(C)cc1/C(OCOC(=O)C(F)(F)F)=C(\C#N)c1ccc(C(C)(C)C)cc1 [Compound 238],≥ 90%,≥ 95%,≥ 90%,–
CCn1nc(C)c(C)c1/C(OCOC(=O)OCC(C)C)=C(\C#N)c1ccc(C(C)(C)C)cc1 [Compound 937],≥ 90%,≥ 95%,≥ 90%,"pest or weed control at 1.25 µg/mL [1, 7]: 100%; pest or weed control at 1.25 µg/mL [1, 8]: ≥ 90%; pest or weed control at 2 µg/mL [2, 9]: ≥ 90%; pest or weed control at 0.5 µg/mL [2, 10]: 90%; pest or weed control at 2 µg/mL [3, 11]: ≥ 90%; pest or weed control at 2 µg/mL [3, 12]: 100%"
COC(=O)OC(C)O/C(=C(/C#N)c1ccc(C(C)(C)C)cc1)c1cc(C)nn1C (stereo not drawn) [Compound 483],≥ 90%,≥ 95%,≥ 90%,–
CCn1nc(C)cc1/C(OC(C)OC(=O)OC)=C(\C#N)c1ccc(C(C)(C)C)cc1 (stereo not drawn) [Compound 579],≥ 90%,≥ 95%,≥ 90%,"pest or weed control at 1.25 µg/mL [1, 8]: ≥ 90%; pest or weed control at 2 µg/mL [2, 9]: ≥ 90%; pest or weed control at 2 µg/mL [3, 11]: ≥ 90%"
Cc1nn(C)c(/C(OCOC(=O)CF)=C(\C#N)c2ccc(C(C)(C)C)cc2)c1Cl [Compound 87],–,–,–,"pest or weed control at 2.5 µg/mL [1, 8]: ≥ 90%; pest or weed control at 2.5 µg/mL ([2]; 48 h, read-out: nymph-killing activity): ≥ 95%; pest or weed control at 5 µg/mL ([3]; read-out: ovicidal activity): ≥ 90%"
Cc1nn(C)c(/C(OC(C)OC(=O)CC(C)C)=C(\C#N)c2ccc(C(C)(C)C)cc2)c1C (stereo not drawn) [Compound 182],≥ 90%,≥ 95%,≥ 90%,–
Cc1nn(C)c(/C(OCOC(=O)C(F)(F)F)=C(\C#N)c2ccc(C(C)(C)C)cc2)c1C [Compound 163],≥ 90%,≥ 95%,≥ 90%,–
Cc1cc(/C(OC(C)OC(=O)C(C)(C)C)=C(\C#N)c2ccc(C(C)(C)C)cc2)n(C)n1 (stereo not drawn) [Compound 30],≥ 90%,≥ 95%,≥ 90%,–

SMILES,"pest or weed control at 2.5 µg/mL [1, 4]","pest or weed control at 2.5 µg/mL [2, 5]","pest or weed control at 5 µg/mL [3, 6]",further results
CCC(C)(C)C(=O)OC(C)O/C(=C(/C#N)c1ccc(C(C)(C)C)cc1)c1c(C)c(C)nn1C (stereo not drawn) [Compound 191],≥ 90%,≥ 95%,≥ 90%,–
CCCCC(=O)OCO/C(=C(/C#N)c1ccc(C(C)(C)C)cc1)c1c(C)c(C)nn1C [Compound 156],≥ 90%,≥ 95%,≥ 90%,–
CCn1nc(C)cc1/C(OC(C)OC(=O)c1ccccc1)=C(\C#N)c1ccc(C(C)(C)C)cc1 (stereo not drawn) [Compound 264],≥ 90%,≥ 95%,≥ 90%,–
CCn1nc(C)cc1/C(OC(C)OC(=O)OCCSC)=C(\C#N)c1ccc(C(C)(C)C)cc1 (stereo not drawn) [Compound 599],≥ 90%,≥ 95%,≥ 90%,–
CCn1nc(C)c(Cl)c1/C(OCOC(=O)C(F)(F)F)=C(\C#N)c1ccc(C(C)(C)C)cc1 [Compound 313],≥ 90%,≥ 95%,≥ 90%,–
C=CC(=O)OC(C)O/C(=C(/C#N)c1ccc(C(C)(C)C)cc1)c1c(C)c(C)nn1C (stereo not drawn) [Compound 192],≥ 90%,≥ 95%,≥ 90%,–
CCSC(=O)OC(C)O/C(=C(/C#N)c1ccc(C(C)(C)C)cc1)c1cc(C)nn1C (stereo not drawn) [Compound 512],≥ 90%,≥ 95%,≥ 90%,–
Cc1nn(C)c(/C(OC(C)OC(=O)C(F)(F)F)=C(\C#N)c2ccc(C(C)(C)C)cc2)c1C (stereo not drawn) [Compound 188],≥ 90%,≥ 95%,≥ 90%,–
CCn1nc(C)c(Cl)c1/C(OC(C)OC(=O)C1CC1)=C(\C#N)c1ccc(C(C)(C)C)cc1 (stereo not drawn) [Compound 334],≥ 90%,≥ 95%,≥ 90%,–
CCn1nc(C)c(Cl)c1/C(OC(C)OC(=O)COC)=C(\C#N)c1ccc(C(C)(C)C)cc1 (stereo not drawn) [Compound 333],≥ 90%,≥ 95%,≥ 90%,–
Cc1nn(C)c(/C(OCOC(=O)C(C)(C)C)=C(\C#N)c2ccc(C(C)(C)C)cc2)c1C [Compound 155],≥ 90%,≥ 95%,≥ 90%,–
Cc1cc(/C(OCOC(=O)OCC(F)(F)F)=C(\C#N)c2ccc(C(C)(C)C)cc2)n(C)n1 [Compound 467],≥ 90%,≥ 95%,≥ 90%,–
CCn1nc(C)c(C)c1/C(OCOC(=O)C(C)(C)C)=C(\C#N)c1ccc(C(C)(C)C)cc1 [Compound 380],≥ 90%,≥ 95%,≥ 90%,–
CCCC(=O)OC(C)O/C(=C(/C#N)c1ccc(C(C)(C)C)cc1)c1cc(C)nn1CC (stereo not drawn) [Compound 253],≥ 90%,≥ 95%,≥ 90%,–
CCn1nc(C)c(Cl)c1/C(OCOC(=O)CSC)=C(\C#N)c1ccc(C(C)(C)C)cc1 [Compound 310],≥ 90%,≥ 95%,≥ 90%,–
CCCC(=O)OC(C)O/C(=C(/C#N)c1ccc(C(C)(C)C)cc1)c1c(C)c(C)nn1C (stereo not drawn) [Compound 178],≥ 90%,≥ 95%,≥ 90%,–
